Compound: O=C(Nc1cc(C(F)(F)F)cc(C(F)(F)F)c1)c1cc(Cl)ccc1O [IMD-0354] + O=C(CCCCCCC(=O)Nc1ccccc1)NO [Vorinostat] (partner 1 µM)
Experiment: relative viability (nuclei count vs DMSO), 5 days (fraction); higher = more cells survive
Conditions: first compound 0.04 µM
How it was run: (§1)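 Dosing by pin tool came one day after lung cancer cell lines were seeded in 1536-well plates, using either one drug or a fixed anchor-drug dose plus five library-drug doses (not always all listed) in √10 steps. After 5 days, nuclei were counted on 4× images. Relative viability is treated-well nuclei count divided by vehicle-well nuclei count, and values are medians of duplicate plates.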

Row | Cell Line | relative viability
1 | NCI-H3122 | 1.04
2 | NCI-H1437 | 0.842
3 | NCI-H1755 | 0.829
4 | NCI-H2023 | 0.7
5 | HCC-15 | 0.931
6 | PC-14 | 0.83
7 | EKVX | 0.469
8 | LC-2-ad | 0.732
9 | NCI-H1975 | 0.723
10 | RERF-LC-KJ | 0.775
11 | NCI-H650 | 0.385
12 | PC-3 [JPC-3] | 0.869

Same assay, conditions: first compound 0.1265 µM

Row | Cell Line | relative viability
13 | NCI-H3122 | 0.936
14 | NCI-H1437 | 0.81
15 | NCI-H1755 | 0.781
16 | NCI-H2023 | 0.738
17 | HCC-15 | 0.799
18 | PC-14 | 0.751
19 | EKVX | 0.754
20 | LC-2-ad | 0.691
21 | NCI-H1975 | 0.685
22 | RERF-LC-KJ | 0.677
23 | NCI-H650 | 0.445
24 | PC-3 [JPC-3] | 0.813

Same assay, conditions: first compound 0.4 µM

Row | Cell Line | relative viability
25 | NCI-H3122 | 0.622
26 | NCI-H1437 | 0.432
27 | NCI-H1755 | 0.59
28 | NCI-H2023 | 0.464
29 | HCC-15 | 0.516
30 | PC-14 | 0.564
31 | EKVX | 0.556
32 | LC-2-ad | 0.394
33 | NCI-H1975 | 0.493
34 | RERF-LC-KJ | 0.542
35 | NCI-H650 | 0.349
36 | PC-3 [JPC-3] | 0.769

Same assay, conditions: first compound 1.265 µM

Row | Cell Line | relative viability
37 | NCI-H3122 | 0.3
38 | NCI-H1437 | 0.251
39 | NCI-H1755 | 0.408
40 | NCI-H2023 | 0.127
41 | HCC-15 | 0.327
42 | PC-14 | 0.234
43 | EKVX | 0.691
44 | LC-2-ad | 0.193
45 | NCI-H1975 | 0.209
46 | RERF-LC-KJ | 0.167
47 | NCI-H650 | 0.366
48 | PC-3 [JPC-3] | 0.296

Same assay, conditions: first compound 4 µM

Row | Cell Line | relative viability
49 | NCI-H3122 | 0.132
50 | NCI-H1437 | 0.263
51 | NCI-H1755 | 0.225
52 | NCI-H2023 | 0.104
53 | HCC-15 | 0.2
54 | PC-14 | 0.119
55 | EKVX | 0.359
56 | LC-2-ad | 0.169
57 | NCI-H1975 | 0.248
58 | RERF-LC-KJ | 0.172
59 | NCI-H650 | 0.133
60 | PC-3 [JPC-3] | 0.412

Compound: O=C(Nc1cc(C(F)(F)F)cc(C(F)(F)F)c1)c1cc(Cl)ccc1O [IMD-0354] + Cc1nc(Nc2ncc(C(=O)Nc3c(C)cccc3Cl)s2)cc(N2CCN(CCO)CC2)n1 [Dasatinib] (partner 0.075 µM)
Experiment: as above
Conditions: first compound 0.04 µM
How it was run: as §1

Row | Cell Line | relative viability
61 | NCI-H3122 | 0.843
62 | NCI-H1437 | 0.528
63 | NCI-H1755 | 0.438
64 | NCI-H2023 | 0.713
65 | HCC-15 | 0.613
66 | PC-14 | 0.334
67 | EKVX | 0.32
68 | LC-2-ad | 0.644
69 | NCI-H1975 | 0.421
70 | RERF-LC-KJ | 1.08
71 | NCI-H650 | 0.514
72 | PC-3 [JPC-3] | 1.12

Same assay, conditions: first compound 0.1265 µM

Row | Cell Line | relative viability
73 | NCI-H3122 | 0.824
74 | NCI-H1437 | 0.381
75 | NCI-H1755 | 0.461
76 | NCI-H2023 | 0.497
77 | HCC-15 | 0.571
78 | PC-14 | 0.186
79 | EKVX | 0.505
80 | LC-2-ad | 0.486
81 | NCI-H1975 | 0.398
82 | RERF-LC-KJ | 0.727
83 | NCI-H650 | 0.484
84 | PC-3 [JPC-3] | 0.878

Same assay, conditions: first compound 0.4 µM

Row | Cell Line | relative viability
85 | NCI-H3122 | 0.321
86 | NCI-H1437 | 0.255
87 | NCI-H1755 | 0.395
88 | NCI-H2023 | 0.361
89 | HCC-15 | 0.375
90 | PC-14 | 0.406
91 | EKVX | 0.445
92 | LC-2-ad | 0.253
93 | NCI-H1975 | 0.233
94 | RERF-LC-KJ | 0.614
95 | NCI-H650 | 0.404
96 | PC-3 [JPC-3] | 0.761

Same assay, conditions: first compound 1.265 µM

Row | Cell Line | relative viability
97 | NCI-H3122 | 0.286
98 | NCI-H1437 | 0.0882
99 | NCI-H1755 | 0.243
100 | NCI-H2023 | 0.108
101 | HCC-15 | 0.094
102 | PC-14 | 0.0692
103 | EKVX | 0.409
104 | LC-2-ad | 0.146
105 | NCI-H1975 | 0.128
106 | RERF-LC-KJ | 0.208
107 | NCI-H650 | 0.264
108 | PC-3 [JPC-3] | 0.399

Same assay, conditions: first compound 4 µM

Row | Cell Line | relative viability
109 | NCI-H3122 | 0.0969
110 | NCI-H1437 | 0.144
111 | NCI-H1755 | 0.34
112 | NCI-H2023 | 0.113
113 | HCC-15 | 0.164
114 | PC-14 | 0.102
115 | EKVX | 0.272
116 | LC-2-ad | 0.126
117 | NCI-H1975 | 0.135
118 | RERF-LC-KJ | 0.251
119 | NCI-H650 | 0.197
120 | PC-3 [JPC-3] | 0.275

Compound: Cc1cnc(CNC(=O)c2c(=O)c3ccc(N4CCCN(C)CC4)nc3n3c2sc2ccccc23)cn1 [CX-5461] + Nc1nc2[nH]cc(CCc3ccc(C(=O)N[C@@H](CCC(=O)O)C(=O)O)cc3)c2c(=O)[nH]1 [Pemetrexed] (partner 0.2 µM)
Experiment: as above
Conditions: first compound 0.01 µM
How it was run: as §1

Row | Cell Line | relative viability
121 | NCI-H3122 | 0.201
122 | NCI-H1437 | 0.31
123 | NCI-H1755 | 0.389
124 | NCI-H2023 | 0.218
125 | HCC-15 | 0.232
126 | PC-14 | 0.134
127 | EKVX | 0.457
128 | LC-2-ad | 0.238
129 | NCI-H1975 | 0.286
130 | RERF-LC-KJ | 0.508
131 | NCI-H650 | 1.05
132 | PC-3 [JPC-3] | 1.18

Same assay, conditions: first compound 0.03162 µM

Row | Cell Line | relative viability
133 | NCI-H3122 | 0.196
134 | NCI-H1437 | 0.307
135 | NCI-H1755 | 0.507
136 | NCI-H2023 | 0.246
137 | HCC-15 | 0.232
138 | PC-14 | 0.134
139 | EKVX | 0.394
140 | LC-2-ad | 0.27
141 | NCI-H1975 | 0.296
142 | RERF-LC-KJ | 0.465
143 | NCI-H650 | 0.986

Same assay, conditions: first compound 0.1 µM

Row | Cell Line | relative viability
144 | NCI-H3122 | 0.2
145 | NCI-H1437 | 0.268
146 | NCI-H1755 | 0.427
147 | HCC-15 | 0.215
148 | PC-14 | 0.118
149 | EKVX | 0.437
150 | LC-2-ad | 0.244
151 | NCI-H1975 | 0.274
152 | RERF-LC-KJ | 0.442
153 | NCI-H650 | 0.879
154 | PC-3 [JPC-3] | 1.11

Same assay, conditions: first compound 0.3162 µM

Row | Cell Line | relative viability
155 | NCI-H3122 | 0.206
156 | NCI-H1437 | 0.307
157 | NCI-H1755 | 0.399
158 | NCI-H2023 | 0.19
159 | HCC-15 | 0.233
160 | PC-14 | 0.157
161 | LC-2-ad | 0.296
162 | NCI-H1975 | 0.331
163 | RERF-LC-KJ | 0.403
164 | NCI-H650 | 0.943
165 | PC-3 [JPC-3] | 1.15

Same assay, conditions: first compound 1 µM

Row | Cell Line | relative viability
166 | NCI-H3122 | 0.18
167 | NCI-H1437 | 0.29
168 | NCI-H1755 | 0.488
169 | NCI-H2023 | 0.111
170 | HCC-15 | 0.204
171 | PC-14 | 0.113
172 | EKVX | 0.322
173 | LC-2-ad | 0.279
174 | NCI-H1975 | 0.264
175 | RERF-LC-KJ | 0.434
176 | NCI-H650 | 0.873
177 | PC-3 [JPC-3] | 0.86

Compound: O=C(Nc1cc(C(F)(F)F)cc(C(F)(F)F)c1)c1cc(Cl)ccc1O [IMD-0354] + CC(C)C[C@H](NC(=O)[C@H](Cc1ccccc1)NC(=O)c1cnccn1)B(O)O [Bortezomib] (partner 0.002 µM)
Experiment: as above
Conditions: first compound 0.04 µM
How it was run: as §1

Row | Cell Line | relative viability
178 | NCI-H3122 | 0.975
179 | NCI-H1437 | 0.486
180 | NCI-H1755 | 1.16
181 | NCI-H2023 | 1.02
182 | HCC-15 | 1
183 | PC-14 | 1.12
184 | EKVX | 1
185 | LC-2-ad | 1.02
186 | NCI-H1975 | 0.371
187 | RERF-LC-KJ | 1.15
188 | NCI-H650 | 0.413
189 | PC-3 [JPC-3] | 0.928

Same assay, conditions: first compound 0.1265 µM

Row | Cell Line | relative viability
190 | NCI-H3122 | 1.06
191 | NCI-H1437 | 0.383
192 | NCI-H1755 | 1.07
193 | NCI-H2023 | 0.97
194 | HCC-15 | 0.962
195 | PC-14 | 0.802
196 | EKVX | 1.39
197 | LC-2-ad | 0.991
198 | NCI-H1975 | 0.442
199 | RERF-LC-KJ | 1.17
200 | NCI-H650 | 0.748
201 | PC-3 [JPC-3] | 0.912

Same assay, conditions: first compound 0.4 µM

Row | Cell Line | relative viability
202 | NCI-H3122 | 0.927
203 | NCI-H1437 | 0.332
204 | NCI-H1755 | 0.454
205 | NCI-H2023 | 0.843
206 | HCC-15 | 0.549
207 | PC-14 | 0.354
208 | LC-2-ad | 0.385
209 | NCI-H1975 | 0.345
210 | RERF-LC-KJ | 0.875
211 | NCI-H650 | 0.606
212 | PC-3 [JPC-3] | 0.534

Same assay, conditions: first compound 1.265 µM

Row | Cell Line | relative viability
213 | NCI-H3122 | 0.231
214 | NCI-H1437 | 0.0977
215 | NCI-H1755 | 0.358
216 | NCI-H2023 | 0.114
217 | HCC-15 | 0.346
218 | PC-14 | 0.443
219 | EKVX | 0.716
220 | LC-2-ad | 0.129
221 | NCI-H1975 | 0.201
222 | RERF-LC-KJ | 0.489
223 | NCI-H650 | 0.49
224 | PC-3 [JPC-3] | 0.636

Same assay, conditions: first compound 4 µM

Row | Cell Line | relative viability
225 | NCI-H3122 | 0.172
226 | NCI-H1437 | 0.196
227 | NCI-H1755 | 0.177
228 | NCI-H2023 | 0.081
229 | HCC-15 | 0.119
230 | PC-14 | 0.114
231 | EKVX | 0.187
232 | LC-2-ad | 0.119
233 | NCI-H1975 | 0.213
234 | RERF-LC-KJ | 0.254
235 | NCI-H650 | 0.355
236 | PC-3 [JPC-3] | 0.312
